Our source for the Kd values is paper PMC4109617, “The functionalized amino acid (S)-Lacosamide subverts CRMP2-mediated tubulin polymerization to prevent constitutive and activity-dependent increase in neurite outgrowth” (Frontiers in Cellular Neuroscience, 2014).

In the assay the target is T1, CRMP2 (collapsin response mediator protein 2) (Rattus norvegicus, UniProt P47942).
T1 construct: gene Dpysl2; purified recombinant wild-type CRMP2 (GST construct), NT647-labeled
Put plainly: microscale thermophoresis (MST), Hill fit. Format: binding.

Usually Kd stands for the free concentration of one partner at which half of the binding sites on the other are occupied at equilibrium, for simple one-to-one binding. A low value points to tighter binding. Turning to `COC[C@H](NC(C)=O)C(=O)NCc1ccccc1` [(S)-LCM, (S)-lacosamide], the Kd was found to be 1500 ± 10 nM.
